The values below come from patent US6413956B1, “Substituted 4-oxo-quinoline-3-carboxamides” (Neurogen Corporation, priority 1999, dated 2002).

For orientation: melting point means the temperature, or range, at which the solid turns liquid.

For the compound `CCOc1ccc2[nH]cc(C(=O)NCc3ccccn3)c(=O)c2c1` [compound 51, N-[(2-Pyridyl)methyl] 6-ethoxy-4-oxo-1,4-dihydro-quinoline-3-carboxamide], the melting point is 221 to 222 °C.
For `CCOc1ccc2[nH]cc(C(=O)NCc3cccnc3)c(=O)c2c1` [compound 52, N-[(3-Pyridyl)methyl] 6-ethoxy-4-oxo-1,4-dihydro-quinoline-3-carboxamide] the value was 222 to 224 °C; for `CCCCNC(=O)c1c[nH]c2ccc(OCC)cc2c1=O` [compound 53, N-Butyl 6-ethoxy-4-oxo-1,4-dihydro-quinoline-3-carboxamide], 190 to 191 °C; for `CCCCCNC(=O)c1c[nH]c2ccc(OCC)cc2c1=O` [compound 54, N-Pentyl 6-ethoxy-4-oxo-1,4-dihydro-quinoline-3-carboxamide], 180 to 183 °C.
As to `CCCNC(=O)c1c[nH]c2ccc(OCC)cc2c1=O` [compound 55, N-Propyl 6-ethoxy-4-oxo-1,4-dihydro-quinoline-3-carboxamide], the melting point was 219 to 221 °C.
`CCOc1ccc2[nH]cc(C(=O)NCC(C)C)c(=O)c2c1` [compound 56, N-[(2-Methyl)propyl] 6-ethoxy-4-oxo-1,4-dihydro-quinoline-3-carboxamide] gave a melting point of 214 to 216 °C.
For `CCCCCCNC(=O)c1c[nH]c2ccc(OCC)cc2c1=O` [compound 57, N-Hexyl 6-ethoxy-4-oxo-1,4-dihydro-quinoline-3-carboxamide] the value was 181 to 182 °C; for `CCOc1ccc2[nH]cc(C(=O)NC)c(=O)c2c1` [compound 58, N-Methyl 6-ethoxy-4-oxo-1,4-dihydro-quinoline-3-carboxamide], 279 to 281 °C.
Under `CCOc1ccc2[nH]cc(C(=O)NCc3ccsc3)c(=O)c2c1` [compound 59, N-[(3-Thienyl)methyl] 6-ethoxy-4-oxo-1,4-dihydro-quinoline-3-carboxamide] stands 203 to 205 °C; under `CCOc1ccc2[nH]cc(C(=O)NCc3ccc(Cn4ccnc4)cc3)c(=O)c2c1` [compound 66, N-[4-[(1-Imidazolyl)methyl]benzyl} 6-ethoxy-4-oxo-1,4-dihydro-quinoline-3-carboxamide], 161 to 165 °C; under `O=C(NCc1ccc(F)cc1)c1c[nH]c2ccc(Cl)cc2c1=O` [compound 73, N-4-Fluorobenzyl 6-chloro-4-oxo-1,4-dihydroquinoline-3-carboxamide], 273 to 276 °C.
For `CCOc1ccc2[nH]cc(C(=O)NCc3ccc(CN(Cc4ccccc4)Cc4ccccc4)cc3)c(=O)c2c1` [compound 82, N-[4-(Dibenzylaminomethyl)benzyl] 6-ethoxy-4-oxo-1,4-dihydro-quinoline-3-carboxamide] the value was 162 to 164 °C; for `CCOc1ccc2[nH]cc(C(=O)NCc3ccc(CNCCN4CCOCC4)cc3)c(=O)c2c1` [compound 83, N-{4-[[2-(4-Morpholinyl)ethyl]aminomethyl]benzyl} 6-ethoxy-4-oxo-1,4-dihydro-quinoline-3-carboxamide], 123 to 127 °C.
On to `CCOc1ccc2[nH]cc(C(=O)NCc3ccc(CN(CC)Cc4ccccc4)cc3)c(=O)c2c1` [compound 97, N-{4-[(N-Benzyl-N-ethylamino)methyl]benzyl} 6-ethoxy-4-oxo-1,4-dihydroquinoline-3-carboxamide], for which the melting point lay within 129 to 132 °C.
For `CCOc1ccc2[nH]cc(C(=O)NCc3ccc(CN(C)Cc4ccccc4)cc3)c(=O)c2c1` [compound 98, N-{4-[(N-Benzyl-N-methylamino)methyl]benzyl} 6-ethoxy-4-oxo-1,4-dihydroquinoline-3-carboxamide] the value was 129 to 131 °C; for `CCOc1ccc2[nH]cc(C(=O)NCc3ccc(CN(C)CCc4ccccc4)cc3)c(=O)c2c1` [compound 99, N-{4-[(N-Methyl-N-phenethylamino)methyl]benzyl} 6-ethoxy-4-oxo-1,4-dihydroquinoline-3-carboxamide], 137 to 139 °C; for `CCOc1ccc2[nH]cc(C(=O)NCc3ccc(CN4CCCCC4)cc3)c(=O)c2c1` [compound 102, N-{4-[(1-Piperidinyl)methyl]benzyl} 6-ethoxy-4-oxo-1,4-dihydroquinoline-3-carboxamide], 172 to 174 °C.
Under `CCOc1ccc2[nH]cc(C(=O)NCc3ccc(CN4CCCC4)cc3)c(=O)c2c1` [compound 103, N-{4-[(1-Pyrrolidinyl)methyl]benzyl} 6-ethoxy-4-oxo-1,4-dihydroquinoline-3-carboxamide] stands 168 to 171 °C; under `COCc1ccc2[nH]cc(C(=O)NCc3cccc(CN4CCOCC4)c3)c(=O)c2c1` [compound 105, N-{3-[(4-Morpholinyl)methyl]benzyl} 6-methoxymethyl-4-oxo-1,4-dihydroquinoline-3-carboxamide], 151 to 153 °C; under `CCOc1ccc2[nH]cc(C(=O)NCc3cccc(CN(C)Cc4ccccc4)c3)c(=O)c2c1` [compound 108, N-{3-[(N-Benzyl-N-methylamino)methyl]benzyl}-6-ethoxy-4-oxo-1,4-dihydroquinoline-3-carboxamide], 144 to 146 °C.
For `CCOc1ccc2[nH]cc(C(=O)NCc3cccc(CN4CCOCC4)c3)c(=O)c2c1` [compound 117, N-[3-(4-Morpholinylmethyl)benzyl]-6-ethoxy-4-oxo-1,4-dihydroquinoline-3-carboxamide] the value was 173 to 177 °C.
`Cc1ccc2[nH]cc(C(=O)NCc3cccc(CN4CCOCC4)c3)c(=O)c2c1` [compound 127, N-[3-(4-Morpholinylmethyl)benzyl]-6-methyl-4-oxo-1,4-dihydroquinoline-3-carboxamide]: the melting point lay in the range of 140 to 144 °C.
Under `COc1ccc2[nH]cc(C(=O)NCc3cccc(CN(C)Cc4ccccc4)c3)c(=O)c2c1` [compound 130, N-[3-(N-Benzyl-N-methylaminomethyl)benzyl]-6-methoxy-4-oxo-1,4-dihydroquinoline-3-carboxamide] stands 186 to 188 °C.
